Measurements reported in ChEMBL document CHEMBL1132058, “Potent inhibitors of protein farnesyltransferase: heteroarenes as cysteine replacements” (Bioorg Med Chem Lett, 1999).

Key:
[1] = molecular target: Protein farnesyltransferase (Homo sapiens, UniProt P49354+P49356); assay: Inhibitory activity against farnesyltransferase (FT) using SPA assay; format: protein-complex assay
NIH3T3 [2] = assay: (§1) Inhibition of H-ras processing in subconfluent H-Ras-transformed NIH3T3 cells; format: functional, Mus musculus
[3] = AUC value in rat after IV administration at a dose of 10 mg/kg; format: ADME, organism-based; parameters: dose 10 mg/kg, route intravenous; settings: plasma
[4] = AUC value in dog after oral administration at a dose of 5 mg/kg; format: ADME, organism-based, Canis lupus familiaris; parameters: dose 5 mg/kg, route oral; settings: plasma
[5] = Tmax value in rat after oral administration at a dose of 10 mg/kg; format: ADME, organism-based; parameters: dose 10 mg/kg, route oral; settings: in vivo
[6] = AUC value in dog after IV administration at a dose of 5 mg/kg; format: ADME, organism-based, Canis lupus familiaris; parameters: dose 5 mg/kg, route intravenous; settings: plasma
[7] = Bioavailability in dog after oral administration at a dose of 5 mg/kg; format: ADME, organism-based, Canis lupus familiaris; settings: in vivo
[8] = Cmax value in rat after oral administration at a dose of 10 mg/kg; format: ADME, organism-based; parameters: dose 10 mg/kg, route oral; settings: in vivo
[9] = Bioavailability in rat after oral administration at a dose of 10 mg/kg; format: ADME, organism-based; settings: in vivo
[10] = AUC value in rat after oral administration at a dose of 10 mg/kg; format: ADME, organism-based; parameters: dose 10 mg/kg, route oral; settings: plasma
[11] = Cmax value in dog after oral administration at a dose of 5 mg/kg; format: ADME, organism-based, Canis lupus familiaris; parameters: dose 5 mg/kg, route oral; settings: in vivo
[12] = Half life period in rat after IV administration at a dose of 10 mg/kg; format: ADME, organism-based; parameters: dose 10 mg/kg, route intravenous; settings: in vivo
[13] = Half life period in dog after IV administration at a dose of 5 mg/kg; format: ADME, organism-based, Canis lupus familiaris; parameters: dose 5 mg/kg, route intravenous; settings: in vivo
[14] = Tmax value in dog after oral administration at a dose of 5 mg/kg; format: ADME, organism-based, Canis lupus familiaris; parameters: dose 5 mg/kg, route oral; settings: in vivo
NIH3T3 [15] = assay: as §1; format: functional, cell-based; settings: Mus musculus
NIH3T3 [16] = assay: as §1; format: functional, Mus musculus; parameters: concentration or dose not given beside the values
NIH3T3 [17] = assay: Inhibition of H-ras processing in subconfluent H-Ras-transformed NIH3T3 cells at 1 uM; format: functional; settings: Mus musculus

Structure (SMILES) | IC50 [1] | Inhibition (NIH3T3 [16]) | other results
CSCC[C@H](NC(=O)c1ccc(/C=C/c2cnccn2)cc1-c1ccccc1C)C(=O)O | 57 nM | – | –
CSCC[C@H](NC(=O)c1ccc(/C=C/c2cnc3ccccc3c2)cc1-c1ccccc1C)C(=O)O | 16 nM | – | EC50 (NIH3T3 [15]): > 1000 nM
CSCC[C@H](NC(=O)c1ccc(/C=C/c2cnccc2C2(O)CCCCC2)cc1-c1ccccc1C)C(=O)O | 0.81 nM | 74% | –
CSCC[C@H](NC(=O)c1ccc(/C=C/c2cncs2)cc1-c1ccccc1C)C(=O)O | 2.4 nM | – | EC50 (NIH3T3 [15]): > 1000 nM
CSCC[C@H](NC(=O)c1ccc(/C=C/c2cncnc2)cc1-c1ccccc1C)C(=O)O | 25 nM | – | –
CSCC[C@H](NC(=O)c1ccc(/C(C#N)=C\c2cccnc2)cc1-c1ccccc1C)C(=O)O | 3.6 nM | 60% | –
CCCOc1ccncc1/C=C/c1ccc(C(=O)N[C@@H](CCSC)C(=O)O)c(-c2ccccc2C)c1 | 1.4 nM | 49% | –
CSCC[C@H](NC(=O)c1ccc(/C(=C\c2cccnc2)C(=O)OC(C)(C)C)cc1-c1ccccc1C)C(=O)O | 15 nM | 35% | –
COc1ccncc1/C=C/c1ccc(C(=O)N[C@@H](CCSC)C(=O)O)c(-c2ccccc2C)c1 | 2.9 nM | 66% | –
CSCC[C@H](NC(=O)c1ccc(/C=C/c2cncc(Cc3ccccc3)c2)cc1-c1ccccc1C)C(=O)O | 4.7 nM | – | EC50 (NIH3T3 [15]): > 1000 nM
CSCC[C@H](NC(=O)c1ccc(NC[C@@H](N)CS)cc1-c1ccccc1)C(=O)O | – | – | EC50 (NIH3T3 [15]): 1000 nM
CSCC[C@H](NC(=O)c1ccc(/C=C/c2cnccc2C(=O)c2ccccc2)cc1-c1ccccc1C)C(=O)O | 0.92 nM | – | EC50 (NIH3T3 [15]): 1000 nM
CSCC[C@H](NC(=O)c1ccc(C#Cc2cccnc2)cc1-c1ccccc1C)C(=O)O | 2.7 nM | – | EC50 (NIH3T3 [15]): 1000 nM
CSCC[C@H](NC(=O)c1ccc(CCc2cccnc2)cc1-c1ccccc1C)C(=O)O | 2.1 nM | – | –
CSCC[C@H](NC(=O)c1ccc(/C(=C/c2cccnc2)C(=O)OC(C)(C)C)cc1-c1ccccc1C)C(=O)O | 0.91 nM | 80% | –
CSCC[C@H](NC(=O)c1ccc(C#Cc2cncnc2)cc1-c1ccccc1C)C(=O)O | 140 nM | – | –
CSCC[C@H](NC(=O)c1ccc(/C=C/c2ccc(Oc3ccccc3)nc2)cc1-c1ccccc1C)C(=O)O | 26 nM | – | –
CSCC[C@H](NC(=O)c1ccc(/C=C/c2cncc(-c3ccccc3)c2)cc1-c1ccccc1C)C(=O)O | 12 nM | – | –
CSCC[C@H](NC(=O)c1ccc(/C=C/c2cncc3ccccc23)cc1-c1ccccc1C)C(=O)O | 0.8 nM | – | inhibition at 1 µM (NIH3T3 [17]): 64%

Continued by falling IC50 [1], values first:

IC50 [1] | Structure (SMILES) | Inhibition (NIH3T3 [16]) | other results
0.66 nM | CSCC[C@H](NC(=O)c1ccc(/C=C/c2cnccc2C(O)(c2ccccc2)c2ccccc2)cc1-c1ccccc1C)C(=O)O | – | Inhibition (NIH3T3 [2]): 63%
0.63 nM | CSCC[C@H](NC(=O)c1ccc(/C=C/c2c[nH]cn2)cc1-c1ccccc1C)C(=O)O | – | EC50 (NIH3T3 [15]): > 1000 nM
0.61 nM | CSCC[C@H](NC(=O)c1ccc(/C=C/c2cccnc2)cc1-c1ccccc1C)C(=O)O | – | AUC [3]: 6660 ng·h/mL; AUC [4]: 2560 ng·h/mL; Inhibition (NIH3T3 [2]): 79%; Tmax [5]: 19.8 min; AUC [6]: 10500 ng·h/mL; bioavailability [7]: 24.5%; Cmax [8]: 321 ng/mL; bioavailability [9]: 23%; AUC [10]: 870 ng·h/mL; Cmax [11]: 2830 ng/mL; half-life [12]: 129 min; half-life [13]: 33 min; Tmax [14]: 22.8 min
0.59 nM | CSCC[C@H](NC(=O)c1ccc(/C(C#N)=C/c2cccnc2)cc1-c1ccccc1C)C(=O)O | 57% | –
0.58 nM | CSCC[C@H](NC(=O)c1ccc(/C=C/c2cnccc2C(O)c2ccccc2)cc1-c1ccccc1C)C(=O)O (stereo partly specified) | – | Inhibition (NIH3T3 [2]): 67%
0.54 nM | CSCC[C@H](NC(=O)c1ccc(/C=C/c2cnccc2C(O)C2CCCCC2)cc1-c1ccccc1C)C(=O)O (stereo partly specified) | 63% | –
0.4 nM | CSCC[C@H](NC(=O)c1ccc(COc2cccnc2)cc1-c1ccccc1C)C(=O)O | – | –
0.37 nM | CSCC[C@H](NC(=O)c1ccc(/C=C/c2cnccc2C(O)[C@]23C[C@H]4C[C@H](C[C@H](C4)C2)C3)cc1-c1ccccc1C)C(=O)O (stereo partly specified) | 61% | –
0.3 nM | CSCC[C@H](NC(=O)c1ccc(/C=C/c2cnccc2OCc2cc(F)cc(F)c2)cc1-c1ccccc1C)C(=O)O | – | –
0.29 nM | CSCC[C@H](NC(=O)c1ccc(/C=C/c2cnccc2O)cc1-c1ccccc1C)C(=O)O | 75% | –
0.29 nM | CSCC[C@H](NC(=O)c1ccc(/C=C/c2cnccc2Cl)cc1-c1ccccc1C)C(=O)O | 60% | –
0.21 nM | CSCC[C@H](NC(=O)c1ccc(CCn2ccnc2)cc1-c1ccccc1C)C(=O)O | – | EC50 (NIH3T3 [15]): > 1000 nM
0.2 nM | CSCC[C@H](NC(=O)c1ccc(/C=C/n2ccnc2)cc1-c1ccccc1C)C(=O)O | – | EC50 (NIH3T3 [15]): > 1000 nM
0.15 nM | CSCC[C@H](NC(=O)c1ccc(CCc2c[nH]cn2)cc1-c1ccccc1C)C(=O)O | – | EC50 (NIH3T3 [15]): > 1000 nM
0.12 nM | CSCC[C@H](NC(=O)c1ccc(/C=C/c2cnccc2C(=O)[C@]23C[C@H]4C[C@H](C[C@H](C4)C2)C3)cc1-c1ccccc1C)C(=O)O | 74% | –
